Counter-ions that a name gives are not always drawn. Like-named read-outs stand apart in the source and are kept apart here.
How the values were obtained:
[1] = tested on: Npas3+/+ control mice; type: in vivo, mouse
Experimental: (§1) Locomotor Activity Tests. For all locomotor experiments, activity is measured in a 41×41×30 cm Omnitech Digiscan activity monitor equipped with 16 pairs of photodetector-LED beams along the x and y axis. (Accuscan Electronics, Columbus, Ohio). […] After the acclimation period, Baseline Locomoter Activity Test results are recorded for each test mouse. Subsequently, locomotor activity is tested following pharmacological challenges of three neurotransmitter pathways involved in schizophrenia and other neurological disorders. The pathways and the drugs used to challenge each include:
(§2) a. Methamphetamine (a dopamine pathway agonist) 1.0 mg/kg in the form of D-methamphetamine-HCL (Sigma; St. Louis, Mo.). Methamphetamine is a strong dopamine agonist that will activate D1 and D2 receptor signaling.
(§3) b. Haloperidol (a dopamine pathway antagonist) 0.3 mg/kg or 1.0 mg/kg (Tocris; Ellisville, Mo.).
(§4) The test drug is 0.3 mg/kg clozapine (Sigma; St. Louis, Mo.). An atypical neuroleptic agent, clozapine, which has a high affinity for serotonin 5-HT2 and 5-HT6 receptors, is administered to determine the involvement of serotonergic pathways. Although clozapine can also antagonize both D1 and D2-like receptors, ten times higher concentrations are necessary to inhibit dopamine-dependent hyperactivity
(§5) The test drugs are 1.0 mg/kg MK-801 or 0.3 mg/kg MK-801 (ICN Biomedicals Inc.; Aurora, Ohio). MK-801 is a noncompetitive NMDA receptor antagonist.
(§6) Each drug is administered in a subcutaneous injection volume of 5 mL/kg body weight. Post-challenge activity is measured for three hours. Horizontal activity counts (scored by visual observance or breaking a light beam) and total distance are recorded during the pre- and post-challenge periods at 3-minute intervals with VersaMax software. All Locomoter Activity Tests are performed on mice at 7-9 weeks of age, with n=12. All values are expressed as mean±SEM. Statistical analyses are performed using appropriate analysis of variance (ANOVA) followed by adapted post hoc comparisons.

[2] = tested on: Npas3−/− mice; type: in vivo, mouse
Experimental: as §1, §2, §3, §4, §5, §6

[3] = FIG. 28 dose of MK-801 (not stated at the place; b105: 1.0 or 0.3 mg/kg), subcutaneous
[4] = FIG. 28 dose of MK-801, subcutaneous
[5] = lower dose 0.1 mg/kg, data not shown
[6] = 0.3 mg/kg subcutaneous, post-challenge activity measured for three hours
[7] = 1.0 mg/kg subcutaneous, post-challenge activity measured for three hours

C[C@]12N[C@H](Cc3ccccc31)c1ccccc12 [MK-801]
horizontal locomotor activity after drug challenge [1, 3]: increased locomotor activity | stereotype (stereotypy) after drug challenge [1, 4]: did not increase the levels of stereotype | locomotor activity after drug challenge [1, 5]: did not induce hyperactivity | horizontal locomotor activity after drug challenge [2, 3]: dramatic suppression of locomotor activity | stereotype (stereotypy) after drug challenge [2, 4]: induced hyperstereotype | locomotor activity after drug challenge [2, 5]: potently activated locomotion

O=C(CCCN1CCC(O)(c2ccc(Cl)cc2)CC1)c1ccc(F)cc1 [haloperidol, Haloperidol]
horizontal locomotor activity after drug challenge [1, 6]: substantial impairment in locomotor activity | horizontal locomotor activity after drug challenge [2, 6]: partial reduction in activity

CN[C@@H](C)Cc1ccccc1 [methamphetamine, D-methamphetamine-HCL]
horizontal locomotor activity after drug challenge [1, 7]: increases locomotor behavior | horizontal locomotor activity after drug challenge [2, 7]: failure of methamphetamine to increase locomotor activity
